According to patent publication US12404332B2, “Methods for diagnosing and treating cancers” (Research Development Foundation, priority 2020, dated 2025):

Tests used:
[1] = system: PD-1 and β2M on OVCAR5 (human ovarian) cells; test: PD-1 and B2M expression on OVCAR5 cells; format: cell-based
Experimental: Tumor and ascites were collected for flow cytometry analyses. Summary graph of CD45-PD-L1 cell percentage and MFI. FIG. 33D, PD-1 and B2M expression on OVCAR5 (human ovarian) cells treated with (+) or without (−) chlorambucil for 48 hours.
(§1) Flow cytometry: Mice were sacrificed by cervical dislocation after induction of deep isoflurane anesthesia. ID8agg tumors were collected and cells were stained as described (Derup et al., 2020) using LSR II hardware and analyzed by FACS Diva (BD Bioscience) or Flow Jo software (Flow Jo, LLC). Anti-mouse (clone 10F.9G2) and human (clone 29E.2A3) PD-L1 [both PE/Cy7, Cat #124314 (mouse) 329718 (human)] were matched with isotype control. Apoptosis assessment used Annexin V and propidium iodide (Thermo Scientific) per manufacturer instruction.

PD-L1 = test: Tumor cell PD-L1 depletion by drugs (flow cytometry, immunoblot); format: cell-based, human and mouse
Experimental: High throughput Screening: B16 PD-L1 RFP cells were treated with 2.5 and 10 μM compounds from the Prestwick and LOPAC Libraries for 48 hours using the Agilent Bravo liquid pipetting platform. Then, cells were washed with PBS, and fixed with 4% paraformaldehyde (Electron Microscopy Sciences, Hatsfield, PA, Cat 15714S) and labeled with 2 μg/ml DAPI, (Molecular Probes, Cat D1306) and 1 μg/ml Cell Mask-Blue (Invitrogen, Cat. H32720). Plates were then imaged using the Operetta High Content Imaging System, Perkin Elmer, Waltham (DAPI and Cell Mask Blue, Ex 360-400, Em 410-480), and the RFP channels (Ex 520-550, Em 560-630) channels. Agents effecting ≥2-fold PD-L1 reduction in the RFP reporter without loss of ≥20% cell viability were candidate PD-L1 depletion agents.
as §1
(§2) Western blotting and immunoprecipitation: To prepare whole cell lysates, cells were harvested and lysed in RIPA (radioimmunoprecipitation assay) buffer plus 1 mM phenylmethylsulphonyl fluoride and Halt protease/phosphatase inhibitor cocktail (Thermo Scientific) at 4° C. Protein concentrations were measured by BCA Protein Assay Kit (Thermo Scientific). Protein was run on precast 4-15% sodium dodecyl sulfate polyacrylamide gels (Bio-Rad), transferred to polyvinylidene fluoride membranes (GE Water and Process Technologies), and then blocked in 5% non-fat milk for 1 hour at room temperature. The membranes were then incubated with 1:1000 diluted primary antibodies against indicated proteins (Cell Signaling). Specific antibody binding was detected by chemiluminescence using Western Lightening Plus regent (Perkin Elmer). Cells for (co) immunoprecipitation experiments were seeded in 15-cm dishes and cultured as described, using 6 million cells per immunoprecipitation reaction. For protein ubiquitination, cells were lysed in denaturing buffer (50 mM Tris-HCl, 0.5 mM EDTA and 1% SDS) followed by heating at 95° C. for 10 minutes and then quenched with 9 volumes of quenching buffer (0.5% Triton X-100, 20 mM Tris-HCl (pH 8.0), 137 mM NaCl, 10% glycerol, 2 mM EDTA). Protease inhibitor cocktail (Roche) was added fresh to all buffers. Cell lysates were incubated on a rotator for 30 minutes at 4° C., and then centrifuged at 20,000 g for 15 minutes at 4° C. Supernatants were subsequently incubated with anti-PD-L1 antibody overnight and processed using Dynabeads Protein G for Immunoprecipitation (Thermo Fisher Scientific). The final eluate was processed and Western blotting was performed.

PD-L1 in OVCAR5 cells = test: PD-L1 mRNA, protein and ubiquitination in OVCAR5 cells; format: cell-based, human
Experimental: FIGS. 39A-C: CAMB reduces PD-L1 through ubiquitination. FIG. 39A, RT-qPCR for PD-L1 mRNA in OVCAR5 and ID8agg cells treated with (+) or without (−) chlorambucil for 48 hours. (n=4). FIG. 39B, Western blot for PD-L1 protein in OVCAR5 cells with (+) or without (−) MG132 for 6 or 20 hours. (upper panel). PD-L1 expression in OVCAR5 cells treated with chlorambucil 48 hours and/or MG132 for 6 hours (lower panel). FIG. 39C, Ubiquitinated PD-L1 was immunoprecipitated (IP) and subjected to Western blot analysis with anti-ubiquitin (Ub) antibody. Cells were treated with chlorambucil for indicated times prior to ubiquitination analysis.
as §2
Quantitative Real-Time Reverse Transcriptase Polymerase Chain Reaction: Total RNA was isolated from homogenized whole lung tissue with Trizol reagent (Invitrogen) according to manufacturer instructions. […] Quantitative PCR (qPCR) was conducted using the Bio-Rad Real-Time PCR System (Applied Biosystems), amplified with transcript-specific primers with SYBR Green (Thermo Scientific), according to manufacturer instructions. […]

O=C(O)CCCc1ccc(N(CCCl)CCCl)cc1 [chlorambucil] was tested, and the “PD-1 and β2M on the cell surface” value [1] was “Upregulation”, the “effect on cell viability” value (PD-L1; over 2-3 days, human and mouse tumor lines) was “little effect on cell viability” and the “expression of PD-L1 in cancer cells” value (PD-L1; summary statement) was “decreased expression of PD-L1”. For the same molecule, the “amount of ubiquitinated PD-L1” value (PD-L1 in OVCAR5 cells; Co-IP) was “increased” and the “PD-L1 mRNA” value (PD-L1 in OVCAR5 cells; OVCAR5 cells) was “little changed”.
